Test results as given in article PMC4552634, “A New Set of Chemical Starting Points with Plasmodium falciparum Transmission-Blocking Potential for Antimalarial Drug Discovery” (PLoS ONE, 2015).
Where two headings read alike, the source gives them in different places.

How the values were obtained:
[1] = tested on: P. falciparum asexual stages; conditions: TCAMS data, cited from earlier work
[2] = tested on: P. falciparum stage V gametocytes; assay: Gametocytocidal ATP bioluminescence assay (single point 5 μM and 1 μM, dose-response); type: cell-based, Plasmodium falciparum; conditions: for IC50: Plasmodium falciparum
[3] = tested on: KCa2.2, a calcium-dependent K+ channel; set-up: method as in TCAMS annotation; conditions: target annotation in TCAMS; ref TCAMS annotation; cited from earlier work
[4] = tested on: P. falciparum stage V gametocytes; set-up: BacTiter-Glo ATP luminescence viability of purified stage V gametocytes in 384-well plates, per cent inhibition versus DMSO; conditions: 48 h, 5 µM; inhibitor
[5] = tested on: luciferase reaction (BacTiter-Glo); assay: Interference assay (inhibition of the BacTiter-Glo luciferase reaction); type: biochemical; set-up: concentration or dose not given beside the values; conditions: ATP interference assay
Procedure: To discard possible false-positive results, we performed an interference assay in parallel. […] […]. The ATP solution was made by dissolving ATP powder (ATP standard from the ATPlite 1 step assay kit, reference 6016731, Perkin Elmer) in culture medium. The positive control used was the Luciferase Inhibitor I Calbiochem (Merck, 119113) at 100 μM.

adenosine A3 receptor = tested on: adenosine A3 receptor; set-up: method as in TCAMS annotation; conditions: target annotation in TCAMS; ref TCAMS annotation; cited from earlier work
[6] = Cytotoxicity in HepG2 cells (intracellular ATP, ATPlite, 48 h); type: cell-based, human; conditions: human, HepG2 cells; IC50 per ratio column head; unit inferred; read-out: Cytotoxicity in HepG2
HepG2 cells = assay: as above; type: cell-based, human; conditions: IC50 HepG2 divided by IC50 P. falciparum gametocytes
[7] = P. falciparum asexual stages, read-out: IC50 (µM) Pf asexual stages
[8] = asexual stages, read-out: IC50 asexual
[9] = P. falciparum gametocytes, average, read-out: IC50 Pf Gametocytes average, IC50 (µM) average
[10] = sexual stages (gametocytes), dose-response, read-out: IC50 sexual

Row | % Control luminiscence [5] [%] | Structure (SMILES) | IC50 [1, 7] [µM] | IC50 [1, 8] [µM] | IC50 [2, 9] [µM] | IC50 ([2]; gametocytes (GC), value as repeated in the Clusters sheet, read-out: IC50 GC) [µM] | IC50 [2, 10] [µM] | reported as inhibitors of KCa2.2 [3] | % Inhibition [4] [%] | Ratio IC50 HepG2/IC50 P. falciparum ([2]; IC50 HepG2 divided by IC50 P. falciparum gametocytes) | reported as an adenosine A3 receptor ligand (adenosine A3 receptor) | IC50 at 48 h [6] [nM] | Ratio IC50 HepG2/IC50 P. falciparum (HepG2 cells)
1 |  | Cc1ccnc(Nc2nc(-c3ccccn3)cs2)c1 [TCMDC-125769] | 1 | 0.998 | 0.0433 | 0.04 | 0.043 | inhibitors |  |  |  |  | 
2 |  | NC(=O)c1ccccc1Nc1nc(Nc2ccn[nH]2)ncc1Cl [TCMDC-134169] |  |  |  |  |  |  | -47.65 |  |  |  | 
3 |  | Cc1ccccc1N1CCN(c2ccc(C(=O)NC3CC3)cn2)CC1 [TCMDC-134578] |  |  |  |  |  |  | 39.4 |  |  |  | 
4 | 100 | Clc1ccc(Nc2nc(-c3ccccn3)cs2)nc1 [TCMDC-123885] | 0.77 | 0.774 | 0.67 |  |  | inhibitors |  |  |  |  | 
5 | 100 | O=C(Nc1nc(-c2ccccn2)cc2ccccc12)c1cccc(Cl)c1 [TCMDC-123886] | 0.75 | 0.754 | 0.5 |  | 0.497 |  |  | >50 | ligand | > 25000 | >50
